Test results as given in ChEMBL document CHEMBL1129901, “Amide bond surrogates: A study in thiophenesulfonamide based endothelin receptor antagonists” (Bioorg Med Chem Lett, 1997).

Key:
Endothelin-1 receptor [1] = biological target: T1, Endothelin-1 receptor (Homo sapiens, UniProt P25101); experiment: Inhibitory of human Endothelin A receptor by using I-ET-1 as radioligand in a competitive radioligand assay
T1 sequence (P25101 whole entry): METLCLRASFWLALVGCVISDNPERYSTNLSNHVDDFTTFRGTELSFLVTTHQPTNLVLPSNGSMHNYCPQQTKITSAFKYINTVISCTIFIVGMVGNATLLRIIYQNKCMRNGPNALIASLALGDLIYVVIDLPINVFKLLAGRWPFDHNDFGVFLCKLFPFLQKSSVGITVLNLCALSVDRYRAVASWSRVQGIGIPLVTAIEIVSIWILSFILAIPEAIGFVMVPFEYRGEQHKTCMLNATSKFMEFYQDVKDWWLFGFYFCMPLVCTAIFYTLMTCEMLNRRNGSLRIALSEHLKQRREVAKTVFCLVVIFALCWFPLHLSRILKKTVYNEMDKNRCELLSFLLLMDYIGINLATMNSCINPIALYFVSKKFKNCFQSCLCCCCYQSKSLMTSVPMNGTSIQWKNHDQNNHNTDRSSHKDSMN

[2] = biological target: T2, Endothelin receptor type B (Homo sapiens, UniProt P24530); experiment: Inhibition of human Endothelin B receptor using I-ET-1 as radioligand in a competitive radioligand assay
T2 sequence (P24530 whole entry): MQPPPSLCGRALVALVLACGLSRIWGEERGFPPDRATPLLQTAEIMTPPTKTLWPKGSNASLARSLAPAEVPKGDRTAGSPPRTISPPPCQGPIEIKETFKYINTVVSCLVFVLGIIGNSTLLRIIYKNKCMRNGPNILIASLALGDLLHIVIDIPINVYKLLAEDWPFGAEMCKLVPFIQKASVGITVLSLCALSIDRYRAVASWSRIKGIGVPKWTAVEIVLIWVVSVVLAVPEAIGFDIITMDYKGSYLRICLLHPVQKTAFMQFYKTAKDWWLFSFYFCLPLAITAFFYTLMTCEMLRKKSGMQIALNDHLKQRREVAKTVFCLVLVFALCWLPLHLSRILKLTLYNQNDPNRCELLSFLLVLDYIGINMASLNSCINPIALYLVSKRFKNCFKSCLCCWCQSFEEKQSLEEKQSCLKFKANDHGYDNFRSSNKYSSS

Endothelin-1 receptor [3] = biological target: T1, Endothelin-1 receptor; experiment: Tested for the inhibitory activity of cloned human ETA receptor by using I-ET-1 as radioligand in a competitive radioligand assay
[4] = biological target: T2, Endothelin receptor type B; experiment: Tested for the inhibitory activity of cloned human ETB receptor by using I-ET-1 as radioligand in a competitive radioligand assay

Structure (SMILES)	IC50 (Endothelin-1 receptor [1]) [µM]	IC50 [2] [µM]	IC50 (Endothelin-1 receptor [3]) [µM]	IC50 [4] [µM]
Cc1cc(C)c(CCc2sccc2S(=O)(=O)Nc2onc(C)c2Br)c(C)c1	0.046	2.09		
Cc1cc(C)c(/C=C/c2ccsc2S(=O)(=O)Nc2onc(C)c2Br)c(C)c1	0.053	1.72		
Cc1ccc(/C=C/c2sccc2S(=O)(=O)Nc2onc(C)c2Br)c(C)c1	0.166	2.97		
Cc1ccc(CCc2ccsc2S(=O)(=O)Nc2onc(C)c2Br)c(C)c1	0.102			
Cc1cc(C)c(/C=C/c2sccc2S(=O)(=O)Nc2onc(C)c2Br)c(C)c1	0.044	2		
Cc1cc(C)c(CCc2ccsc2S(=O)(=O)Nc2onc(C)c2Br)c(C)c1	0.058	1.39		
Cc1noc(NS(=O)(=O)c2ccsc2CCc2ccc3c(c2)OCO3)c1Br	0.205	9.24		
Cc1ccc(CCc2sccc2S(=O)(=O)Nc2onc(C)c2Br)cc1		11.7		
Cc1noc(NS(=O)(=O)c2sccc2/C=C/c2ccc3c(c2)OCO3)c1Br	0.218	9.95		
Cc1ccc(/C=C/c2sccc2S(=O)(=O)Nc2onc(C)c2Br)cc1	0.231	4.13		
Cc1noc(NS(=O)(=O)c2sccc2/C=C/c2cc3c(cc2COC2CCOCC2)OCO3)c1Br	0.073	4.13		
Cc1cc2c(cc1/C=C/c1ccsc1S(=O)(=O)Nc1onc(C)c1Br)OCO2			0.072	5.37
Cc1ccc(/C=C/c2ccsc2S(=O)(=O)Nc2onc(C)c2Br)cc1		6.63		
Cc1noc(NS(=O)(=O)c2sccc2CCc2ccc3c(c2)OCO3)c1Br	0.237	17.9		
Cc1cc(C)c(NC(=O)c2sccc2S(=O)(=O)Nc2onc(C)c2Cl)c(C)c1	0.63			
Cc1cc2c(cc1CCc1ccsc1S(=O)(=O)Nc1onc(C)c1Br)OCO2	0.091	12.4		
Cc1noc(NS(=O)(=O)c2sccc2/C=C/c2cc3c(cc2CO)OCO3)c1Br	0.079	3.24		
Cc1noc(NS(=O)(=O)c2ccsc2/C=C/c2ccc3c(c2)OCO3)c1Br	0.141	5.25		
Cc1cc2c(cc1CCc1sccc1S(=O)(=O)Nc1onc(C)c1Br)OCO2	0.062	8.9		
Cc1cc2c(cc1/C=C/c1sccc1S(=O)(=O)Nc1onc(C)c1Br)OCO2	0.081	3.28		
Cc1ccc(/C=C/c2ccsc2S(=O)(=O)Nc2onc(C)c2Br)c(C)c1	0.18	2.97		
